Reference: paper PMC9220351, “Evaluation of a Conformationally Constrained Indole Carboxamide as a Potential Efflux Pump Inhibitor in Pseudomonas aeruginosa” (Antibiotics, 2022)

Tests used:
Format in all cases: cell-based, Pseudomonas aeruginosa
[1] = test system: 209 P. aeruginosa clinical isolates from three US hospitals; assay: Susceptibility study, Micromyx panel
Text: (§1) First, 209 clinical isolates of P. aeruginosa were collected, unbiased of susceptibility, from three US hospitals by Micromyx (now part of Microbiologics; Kalamazoo, MI, USA). IHMA (Monthey, Switzerland) collected 300 P. aeruginosa clinical isolates, also unbiased of susceptibility, from the following 63 countries: Argentina, Australia, Belgium, Brazil, Canada, Chile, Colombia, Costa Rica, Croatia, Czech Republic, Denmark, Dominican Republic, Ecuador, France, Georgia, Germany, Greece, Guatemala, Hong Kong, Hungary, India, Ireland, Israel, Italy, Japan, Jordan, Kazakhstan, Kenya, South Korea, Kuwait, Latvia, Lebanon, Lithuania, Malaysia, Mexico, Morocco, Netherlands, New Zealand, Nigeria, Panama, Philippines, Poland, Portugal, Puerto Rico, Qatar, Romania, Russia, Saudi Arabia, Serbia, Slovenia, South Africa, Spain, Sweden, Switzerland, Taiwan, Thailand, Tunisia, Turkey, Ukraine, United Kingdom, United States, Venezuela, and Vietnam. Isolates came from the following types of infection: genitourinary (urine), gastrointestinal (stomach), gastrointestinal (pancreas), […] (wound), respiratory (sputum), […] (blood), respiratory (bronchoalveolar lavage), […] (burn), respiratory (endotracheal aspirate), bodily fluids (abscess/pus), […] (impetiginous lesions), gastrointestinal (abscess) and respiratory (bronchial brushing). CF patients were not excluded.
(§2) MIC assays were performed as described previously.

[2] = test system: 300 P. aeruginosa clinical isolates from 63 countries; assay: Susceptibility study, IHMA panel
Text: as §1, §2

[3] = test system: 34 MDR P. aeruginosa clinical isolates (CDC & FDA AR Isolate Bank); assay: microbe, parasite or virus in culture; conditions: for Levofloxacin MIC fold difference: + labelled EPI […] (TXA09155 head: 50 µg/mL); for Levofloxacin MIC: alone or + labelled EPI […] (TXA09155 head: 50 µg/mL)
Text: P. aeruginosa ATCC 27853 was obtained from the American Type Culture Collection (ATCC; Manassas, VA, USA). P. aeruginosa multidrug-resistant isolates were obtained from the CDC and FDA Antibiotic Resistance Isolate Bank (Atlanta, GA, USA). P. aeruginosa DA7232 (gyrA-T83I, parC-S80L) was a kind gift from Prof. Dan I. Andersson, Uppsala University, Uppsala, Sweden, and has been characterized elsewhere. P. aeruginosa strains K767 (WT), K1455 (mexAB-oprM overexpressed), K2415 (mexXY-oprM overexpressed), and K3698 (oprM∆) were obtained from Prof. Keith Poole, Queen’s University, Kingston, Ontario, Canada and have been characterized elsewhere. Bacterial cells were grown in cation-adjusted Mueller Hinton (CAMH) media, brain heart infusion broth (BHI), or tryptic soy agar (TSA) plates were all obtained from Becton, Dickinson, and Company (BD; Franklin Lakes, NJ, USA). […] Azithromycin was purchased from Tokyo Chemical Industry (Portland, OR, USA). […] Ethidium bromide (EtBr) and glucose were purchased from VWR (Radnor, PA, USA). MC-04,124 and TXA01182 were synthesized at TAXIS Pharmaceuticals. Carbonyl cyanide 3-chlorophenylhydrazone (CCCP) was purchased from Enzo Life Sciences (Farmingdale, NY, USA). DiOC2 (3) and propidium iodide were obtained from Thermo Fisher Scientific (Waltham, MA, USA).
as §2

[4] = test system: P. aeruginosa mutants EPIR1S, EPIR9S, EPIR20L, EPIR43; assay: MIC of antimicrobials in TXA09155-resistant mutants; conditions: Pseudomonas aeruginosa
Experimental: All resistant colonies were verified by determining the MIC to TXA09155. […] This two-component system regulates the expression of more than 100 genes in P. aeruginosa, including genes that code for efflux components (mexX), and plays a role in the resistance to cationic antimicrobial peptides and aminoglycoside antibiotics.
as §2

[5] = TXA09155 fixed […], 209 isolates
[6] = TXA09155 fixed […], 300 isolates

Cl.NC[C@@H]1CN[C@H](CNC(=O)c2cc3ccc(-c4ccc(F)cc4)cc3[nH]2)C1 [TXA09155, N-(((2S,4R)-4-(aminomethyl)pyrrolidine-2-yl)methyl)-6-(4-fluorophenyl)-1H-indole-2-carboxamide hydrochloride salt]
32: Levofloxacin MIC fold difference ([3]; strain AR-0229) | Levofloxacin MIC fold difference ([3]; strain AR-0233) | Levofloxacin MIC fold difference ([3]; strain AR-0248) | Levofloxacin MIC fold difference ([3]; strain AR-0249) | Levofloxacin MIC fold difference ([3]; strain AR-0261) | Levofloxacin MIC fold difference ([3]; strain AR-0264)
13%: Cumulative Susceptibility % Strains at 32 ([2]; concentration 32 µg/ml, n: 300)
0.12 µg/mL: levofloxacin MIC50 in presence of TXA09155 [1, 5]
2 µg/mL: levofloxacin MIC90 in presence of TXA09155 [1, 5] | levofloxacin MIC50 in presence of EPI ([3]; EPI (label) fixed […], 34 MDR isolates, levofloxacin alone 32) | Levofloxacin MIC ([3]; strain AR-0229) | Levofloxacin MIC ([3]; strain AR-0244) | Levofloxacin MIC ([3]; strain AR-0249) | Levofloxacin MIC ([3]; strain AR-0266) | Levofloxacin MIC ([3]; strain AR-0269) | Levofloxacin MIC ([3]; strain AR-0272)
16: Levofloxacin MIC fold difference ([3]; strain AR-0232) | Levofloxacin MIC fold difference ([3]; strain AR-0234) | Levofloxacin MIC fold difference ([3]; strain AR-0239) | Levofloxacin MIC fold difference ([3]; strain AR-0240) | Levofloxacin MIC fold difference ([3]; strain AR-0242) | Levofloxacin MIC fold difference ([3]; strain AR-0256) | Levofloxacin MIC fold difference ([3]; strain AR-0265) | Levofloxacin MIC fold difference ([3]; strain AR-0266) | Levofloxacin MIC fold difference ([3]; strain AR-0269)
256: Levofloxacin MIC fold difference ([3]; strain AR-0247)
7%: Cumulative Susceptibility % Strains at 4 ([2]; concentration 4 µg/ml, n: 300) | Cumulative Susceptibility % Strains at 8 ([2]; concentration 8 µg/ml, n: 300)
0.031 µg/mL: Levofloxacin MIC ([3]; strain AR-0253) | Levofloxacin MIC ([3]; strain AR-0256)
1 µg/mL: Levofloxacin MIC ([3]; strain AR-0242) | Levofloxacin MIC ([3]; strain AR-0264)
≤ 0.008 µg/mL: Levofloxacin MIC ([3]; strain AR-0247)
16 µg/mL: Levofloxacin MIC ([3]; strain AR-0231) | Levofloxacin MIC ([3]; strain AR-0245)
0.25 µg/mL: Levofloxacin MIC ([3]; strain AR-0261)
6%: Cumulative Susceptibility % Strains at 8 ([1]; concentration 8 µg/ml, n: 209) | Cumulative Susceptibility % Strains at 2 ([2]; concentration 2 µg/ml, n: 300)
0.062 µg/mL: Levofloxacin MIC ([3]; strain AR-0258) | Levofloxacin MIC ([3]; strain AR-0259)
0.06 µg/mL: levofloxacin MIC50 in presence of TXA09155 [2, 6]
36%: Cumulative Susceptibility % Strains at 32 ([1]; concentration 32 µg/ml, n: 209)
3%: Cumulative Susceptibility % Strains at 4 ([1]; concentration 4 µg/ml, n: 209)
0.063 µg/mL: Levofloxacin MIC ([3]; strain AR-0262)
9%: Cumulative Susceptibility % Strains at 16 ([1]; concentration 16 µg/ml, n: 209) | Cumulative Susceptibility % Strains at 16 ([2]; concentration 16 µg/ml, n: 300)
4 µg/mL: Levofloxacin MIC ([3]; strain AR-0236) | Levofloxacin MIC ([3]; strain AR-0239) | Levofloxacin MIC ([3]; strain AR-0265) | Levofloxacin MIC ([3]; strain AR-0271)
2%: Cumulative Susceptibility % Strains at 1 ([1]; concentration 1 µg/ml, n: 209) | Cumulative Susceptibility % Strains at 2 ([1]; concentration 2 µg/ml, n: 209) | Cumulative Susceptibility % Strains at 1 ([2]; concentration 1 µg/ml, n: 300)
200 µg/mL: MIC ([4]; strain EPIR1S (phoQ-L175R)) | MIC ([4]; strain EPIR20L (phoQ-H248D))
8: Levofloxacin MIC fold difference ([3]; strain AR-0230) | Levofloxacin MIC fold difference ([3]; strain AR-0236) | Levofloxacin MIC fold difference ([3]; strain AR-0241) | Levofloxacin MIC fold difference ([3]; strain AR-0245) | Levofloxacin MIC fold difference ([3]; strain AR-0246) | Levofloxacin MIC fold difference ([3]; strain AR-0250) | Levofloxacin MIC fold difference ([3]; strain AR-0258) | Levofloxacin MIC fold difference ([3]; strain AR-0259) | Levofloxacin MIC fold difference ([3]; strain AR-0260) | Levofloxacin MIC fold difference ([3]; strain AR-0271) | Levofloxacin MIC fold difference ([3]; strain AR-0272)
64: Levofloxacin MIC fold difference ([3]; strain AR-0244) | Levofloxacin MIC fold difference ([3]; strain AR-0252) | Levofloxacin MIC fold difference ([3]; strain AR-0253) | Levofloxacin MIC fold difference ([3]; strain AR-0262) | Levofloxacin MIC fold difference ([3]; strain AR-0267) | Levofloxacin MIC fold difference ([3]; strain AR-0270)
100%: Cumulative Susceptibility % Strains at >32 ([1]; concentration >32 µg/ml, n: 209) | Cumulative Susceptibility % Strains at >32 ([2]; concentration >32 µg/ml, n: 300)
0.5 µg/mL: Levofloxacin MIC ([3]; strain AR-0232) | Levofloxacin MIC ([3]; strain AR-0234) | Levofloxacin MIC ([3]; strain AR-0248) | Levofloxacin MIC ([3]; strain AR-0252) | Levofloxacin MIC ([3]; strain AR-0267) | Levofloxacin MIC ([3]; strain AR-0270)
8 µg/mL: levofloxacin MIC90 in presence of TXA09155 [2, 6] | levofloxacin MIC90 in presence of EPI ([3]; EPI (label) fixed […], 34 MDR isolates, levofloxacin alone 64) | Levofloxacin MIC ([3]; strain AR-0230) | Levofloxacin MIC ([3]; strain AR-0240) | Levofloxacin MIC ([3]; strain AR-0241) | Levofloxacin MIC ([3]; strain AR-0246) | Levofloxacin MIC ([3]; strain AR-0250) | Levofloxacin MIC ([3]; strain AR-0260)
0.125 µg/mL: Levofloxacin MIC ([3]; strain AR-0233)
4: Levofloxacin MIC fold difference ([3]; strain AR-0231)
100 µg/mL: MIC ([4]; strain EPIR9S (phoQ-L175R))
